Entries after “also recorded” stand apart in the source; their conditions may differ.
Assays:
[1] = ADME evaluation (DGMIF), overall conclusion on toxicity; format: in vitro ADME; conditions: conclusion from ADME evaluation
Method: (§1) In order to analyze the drug metabolism of PMSA compound, ADME evaluation was requested to the Daegu-Gyeongbuk Advanced Medical industry Promotion Foundation (DGMIF). Metabolic stability of drugs using liver microsomes (microsomal stability), drug metabolism inhibitory ability by five CYP450 enzymes, plasma metabolism (plasma stability), plasma protein binding, and intestinal permeability of drugs (PAMPA, parallel artificial membrane permeability assay) were analyzed. […] Further, it was confirmed that the permeability resistance was excellent (see Table 3 below). On the other hand, for one of PMSA derivatives, that is, 2-(N-(3,5-dimethylphenyl)methylsulfinamido)-N-(2 (phenylthio)phenyl)propanamide (#25-D5), intestinal permeability of the drug (PAMPA) was not measured.

[2] = PAMPA, parallel artificial membrane permeability assay; format: in vitro ADME; conditions: for Papp: PAMPA, criterion >40, read-out: PAMPA (>40) Pe; for permeability resistance: conclusion from ADME evaluation
Method: as §1

[3] = system: osteoclast-specific genes (CatK, NFATc1, DC-STAMP, OC-STAMP, Acp5); experiment: qRT-PCR of osteoclast-specific gene mRNA expression; format: cell-based, mouse; conditions: for mRNA expression of DC-STAMP / mRNA expression of OC-STAMP / mRNA expression of cathepsin K (CtsK): day 3 of differentiation, compared to control (Ctrl) without PMSA treatment
Method: Further, in order to confirm the expression degree of the osteoclast-specific gene, an mRNA expression level was measured by RT-PCR in the PMSA compound-treated cells. RNA was isolated from the cells differentiated into osteoclasts using an RNeasy kit (Qiagen, 74106), quantified using a spectrophotometer, followed by synthesizing 0.5 μg of RNA using reverse transcriptase (Takara, RR037 A). The synthesized cDNA was subjected to qRT-PCR with a QuantStudio 3 real-time PCR system (Applied Biosystems) using Power SYBR Green […] (Applied Biosystems).
All qPCR experiments were performed in duplicate, and 18S was used as a control. The ddCT method was used for data analysis.
In order to further confirm the inhibitory effect of PSTP-3,5-Me on osteoclast differentiation, the expression levels genes related to osteoclast production were investigated. mRNA expression of specific markers associated with osteoclast production was measured by RT-PCR in 0 or 6 μM PSTP-3,5-Me-treated cells.
For qRT-PCR, total RNA was extracted from BMMs using a TRIzol reagent (Thermo Fisher Scientific, MA, USA). Complementary DNA was synthesized from the total RNA using a Verso cDNA synthesis kit (Thermo Fisher Scientific, MA, USA). Thereafter, quantitative PCR (qPCR) was performed using the QuantStudio 3 real-time PCR system (Applied Biosystems, CA, USA) together with Power SYBR Green PCR Master Mm (Applied Biosystems, CA, USA).

NFATc1 = experiment: Intranuclear migration of transcription factors, western blotting of nuclear and cytoplasmic proteins; format: cell-based, mouse; conditions: osteoclasts differentiated by RANKL for 3 days
Description: In order to further confirm the inhibitory effect of the PMSA compound on osteoclast differentiation, the intranuclear migration of transcription factors NFATc1 and NF-kB and the expression degree of osteoclast-specific genes regulated by the transcription factors were investigated.
First, in order to confirm the intranuclear migration of transcription factors, osteoclasts differentiated by RANKL for 3 days were separated into nuclear protein and cytoplasmic protein using a NE-PER kit (ThermoFisher scientific 78833). Then, the expression of each of NFATc1 and NF-kB in each organelle was investigated through western blotting.

[4] = system: monocytes isolated from mouse bone marrow treated with RANKL; experiment: Osteoclast differentiation inhibition, TRAP staining and assay; format: cell-based; conditions: for cells differentiated into osteoclasts (differentiation area ratio per total area): 10 μM, RANKL, Image J; for cells differentiated into osteoclasts (differentiation area ratio per total area) / osteoclast differentiation inhibitory ability: TRAP staining; for osteoclast differentiation inhibitory ability: area of differentiated osteoclasts
Method: Macrophages were isolated from bone marrow of 8-week old C57BL/6J mice, and seeded on a 96-well plate in an amount of 1×10^4 cells per well, followed by treating the cells with osteoclast differentiation factors M-CSF and RANKL at 30 ng/ml and 50 ng/ml, respectively. At the same time, the compounds were used for treatment, followed by culturing the cells for 3 to 4 days. Thereafter, differentiation influence was evaluated through TRAP staining and cell counting. Specific experimental procedures and results are as follows.
The bone marrow of a 10-week-old female mouse was isolated from the hip bone, femur and tibia, and incubated in α-MEM medium (Gibco, 12561-056, 10% fetal bovine serum, 1% penicillin/streptomycin) containing macrophage colony stimulating factor (M-CSF, PeproTech, 315-02, 30 ng/ml) for […] so as to isolate only monocytes. The isolated monocytes were treated with receptor activator of nuclear factor kappa B ligand (RANKL, PeproTech, 315-11, 50 ng/ml) to induce osteoclast differentiation. When a morphology of fused multinuclear cells began to appear from day 3 after treatment with RANKL, the cells were differentiated into giant multinuclear cells for 4 to 6 days (see FIG. 1), and dead by cell apoptosis after 6 days.
During RANKL treatment, each PMSA compound was also used for treatment, followed by culturing the cells for 3 or 5 days to confirm the effects of inhibiting osteoclast differentiation.
1×10^4 monocytes isolated from mouse bone marrow were put into a 96-well plate and treated with RANKL and PMSA together to confirm the effect of each PMSA on osteoclast differentiation ability. Each PMSA was used for treatment by concentration. The activity of tartrate-resistant acid phosphatase (TRAP), which has increased expression during osteoclast differentiation, was confirmed using a TRAP activity assay kit (Cosmo Bio, PMC-AK04F-COS) (see FIG. 2).
Further, after staining, the multinuclear cells formed during osteoclast differentiation were observed under a microscope, and each well was photographed and a differentiation area ratio per total area was determined using Image J software. […] Specifically, at 10 μM concentration, cells were differentiated into osteoclasts by 30% when using #25 (PMSA-3-Ac), similarly, 74% using #25-C (PMSA-Ph), 63% using #25-N (PMSA-PhN), 41% using #25-PhO (PMSA-O), and only 1% using #25-D12 (PMSA-2-OMe-5-Cl), respectively. […]

ovariectomized mouse = experiment: Ovariectomized (OVX) mouse osteoporosis model, tibia microcomputer tomography; format: in vivo
Method: In order to confirm in vivo efficacy of the PMSA compound, an ovariectomized animal model (OVX, ovariectomized mouse) with osteoporosis due to estrogen deficiency after ovariectomy in 8-week-old female mouse was prepared. #25 (PMSA-3-Ac, 25 mg/kg) or #25-D12 (PMSA-2-OMe-5-Cl, 20 mg/kg) were injected intraperitoneally once every two days to the ovariectomized mouse model. After 4 weeks, the tibia of the mouse was analyzed for bone density by microcomputer tomography.

[5] = 6 μM compared to control (0 μM)
[6] = compared to group in which osteoclasts are normally differentiated
[7] = 20 mg/kg intraperitoneally once every two days, 4 weeks, tibia, compared to control (OVX)

| Papp [2] [×10⁻⁶ cm/s] | permeability resistance [2] | Structure (SMILES) | toxicity [1] | mRNA expression of DC-STAMP [3] | mRNA expression of OC-STAMP [3] | mRNA expression of cathepsin K (CtsK) [3] | NFATc1 expression in the nucleus (NFATc1) | cells differentiated into osteoclasts (differentiation area ratio per total area) [4] [%] | osteoclast differentiation inhibitory ability [4] | other results |
| --- | --- | --- | --- | --- | --- | --- | --- | --- | --- | --- |
| 59.4 ± 1.6 | excellent | CC(=O)c1cccc(N(CC(=O)Nc2ccccc2Sc2ccccc2)S(C)(=O)=O)c1 [#25, 2-(N-(3-acetylphenyl)methylsulfonamido)-N-(2-(phenylthio)phenyl)acetamide] | low toxicity | decrease | decrease | decrease | less expressed in the nucleus | 30 | excellent |  |
|  |  | Cc1cc(C)cc(N([C@@H](C)C(=O)Nc2ccccc2Sc2ccccc2)S(C)(=O)=O)c1 [#25-D5, N^2-(3,5-dimethylphenyl)-N^2-(methylsulfonyl)-N-[2-(phenylthio)phenyl]alanineamide] |  |  |  |  |  |  |  | Acp5 expression level [3, 5]: slightly decreased; CatK expression degree [3, 5]: significantly decreased; DC-STAMP expression level [3, 5]: decreased on day 1; NFATc1 expression degree [3, 5]: significantly decreased; OC-STAMP expression level [3, 5]: decreased on day 1; differentiation area [4, 6]: significant reduction; giant multinuclear cells [4, 6]: significant reduction; number of osteoclasts [4, 6]: significant reduction |
| 49 ± 2 | excellent | COc1ccc(Cl)cc1N(CC(=O)Nc1ccccc1Sc1ccccc1)S(C)(=O)=O [#25-D12, 2-(N-(5-chloro-2-methoxyphenyl)methylsulfonamido)-N-(2-(phenylthio)phenyl)acetamide] | low toxicity | decrease | decrease | decrease | less expressed in the nucleus | 1 | excellent | bone density and bone volume (ovariectomized mouse; 20 mg/kg intraperitoneally once every two days, 4 weeks, compared to control (OVX)): higher; bone volume (BV) increase (ovariectomized mouse; [7]): 6.9%; cortical volume (Ct.V) increase (ovariectomized mouse; [7]): 5.4%; total bone volume (TV) increase (ovariectomized mouse; [7]): 5.4%; trabecular bone mineral density (Th. BMD) increase (ovariectomized mouse; [7]): 42.3%; trabecular volume (Th.V) increase (ovariectomized mouse; [7]): 2.7 times; bone loss (ovariectomized mouse; OVX mouse model): preventing bone loss in the trabecular bone portion; also recorded: effectively reduced bone loss |

Reference: patent publication US12691084B2, “Pharmaceutical composition for preventing or treating bone diseases” (INDUSTRY FOUNDATION OF CHONNAM NATIONAL UNIVERSITY, priority 2019, dated 2026)
